Experiments:
BMMC = assay: Measurements of secreted mediators (ELISA) in activated BMMC; type: cell-based, mouse; details: immunologically activated BMMC, 60 μM Stattic 20 min
Description: 1×106 BMMC were immunologically activated as described above. After IgE incubation, the cells were washed three times in PBS and incubated with DNP-albumin (Sigma-Aldrich) for 30 mM in complete growth medium. Supernatant was collected and Granzyme B and TNFα content were measured using ELISA Kits (eBioscience).

[1] = tested on: succinate cytochrome c reductase (complex 2+3); assay: ETC complex activity analysis in treated RBL cells: complex 2+3; type: cell-based, rat; details: 60 μM Stattic, 30 min, ratio to citrate synthase
Description: The enzymatic activities of respiratory chain complexes were measured at 37° C. by standard spectrophotometric methods as previously described5, 6. Briefly, complex II was measured as succinate dehydrogenase (SDH) based on the succinate-mediated phenazine methosulfate reduction of dichloroindophenol at 600 nm Complex 2+3 were measured as succinate cytochrome c reductase and after the reduction of oxidized cytochrome c at 550 nm. Complex 4 (cytochrome c oxidase) was measured by following the oxidation of reduced cytochrome c at 550 nm.
Citrate synthase (CS), an ubiquitous mitochondrial matrix enzyme, serving as a control, was measured in the presence of acetylCoA and oxaloacetate by monitoring the liberation of CoASH coupled to 5′,5′-dithiobis(2-nitrobenzoic) acid at 412 nm. Activities are presented as a ratio to CS. Protein concentration was determined by the Lowry method and calculated according to a bovine serum albumin (BSA) standard curve.

RBL cells = assay: β-Hexosaminidase release assay (degranulation) in RBL cells; type: cell-based, rat; details: RBL cells
Description: RBL-2H3 cells were maintained in RPMI 1640 medium as previously described1. Bone marrow was isolated from 5-6 week-old mice, and BMMC were cultured in RPMI medium supplemented with 20 ng/ml interleukin-3 (IL-3) and 20 ng/ml SCF as previously described2, 3. Cells were generally grown for a minimum of 4 weeks and used when >90% of the population expressed FcεRI. BMMC and RBL cells were sensitized first with anti-DNP IgE monoclonal antibody (SPE-7; Sigma-Aldrich Corp.) and then challenged with DNP-BSA (Sigma-Aldrich Corp.). IgE antibody was centrifuged (18,000 g, 5 min) before use to remove aggregates. […] For glycolysis elimination cells were maintained in glucose-free RPMI supplemented with 10% dialyzed fetal calf serum and 5 mM galactose.
1×104 RBL or 3×104 BMMC were immunologically activated as described above. After IgE incubation, the cells were washed three times with 5 mL of degranulation buffer (NaCl 130 mM, KCl 5 mM, Glucose 5.6 mM, MgCl2 1 mM, CaCl2 1.2 mM, Hepes pH 7.4 10 mM, BSA 0.1%) and resuspended in 200 μL of the same buffer with DNP-albumin for 30 min. The release of β-hexosaminidase was determined in triplicates in a 96-well plate. Aliquots (20 μL) of supernatants and cell lysates were incubated for 30 minutes with 100 μL of substrate solution (1.3 mg/mL p-nitrophenyl-b-D-2-acetamido-2-deoxyglucopyranozide in 0.1 M citrate [pH 4.51]). The reaction was stopped by the addition of 200 μL of 0.2 M glycine (pH 10.7). The plate OD was read in an enzyme-linked immunosorbent assay (ELISA) reader at a wavelength of 405 nm Percent release values for each experimental condition were calculated3.

[2] = tested on: STAT3 serine 727 phosphorylation; assay: Western blot of STAT3 serine 727 phosphorylation in activated RBL cells; type: cell-based, rat; details: RBL cells, 60 μM Stattic 20 min, immunologically activated 5 min
Description: RBL cells were washed once in cold PBS prior to homogenization. 9×10^6 cells were homogenized in buffer A (320 mm sucrose, 5 mm Tris, 2 mm EGTA, pH 7.4) with 10 strokes of a Teflon Dounce homogenizer. The procedure was performed at 4° C. The homogenate was centrifuged for 3 min at 2000 g and the supernatant kept. This was repeated twice, and the supernatants combined then centrifuged for 3 min at 2000 g. to remove the nuclei and cell debris. The supernatant was transferred to a clean tube and centrifuged for 10 min at 12,000 g to pellet mitochondria, washed twice resuspended in a small volume of buffer A and stored at −70° C. In order to prepare mitoplasts, the mitochondrial pellet was resuspended in buffer A with the addition of 0.02% (w/v) digitonin. The pellet was resuspended and washed twice in large volumes of digitonin-free buffer A. […] Cells and mitochondria were vortexed and incubated on ice for 15 min. The lysates were then centrifuged at 14,000 g for 15 min and pellets were discarded. The protein concentration of each sample was determined using Bradford Reagent (Sigma-Aldrich). Proteins were resolved by 10-15% SDS-PAGE under reducing conditions and transferred to polyvinylidene difluoride membranes (Millipore Billerica, Ma). […] The membranes were washed three times with TBST for 5 mM before and after each incubation with secondary Ab. The proteins were detected with the appropriate secondary Ab (1 h; room temperature) coupled to HRP-conjugated goat anti-rabbit or anti-mouse Ab and visualized by chemiluminescence according to the manufacturer's instructions (Pierce).

## O=[N+]([O-])c1ccc2c(c1)S(=O)(=O)C=C2 [Stattic, 6-Nitrobenzo[b]thiophene 1,1-dioxide, reference compound]
BMMC
  Granzyme B secretion: greatly reduced
[1]
  reduction in complex 2+3 activity: 50.8±6.1%
RBL cells; 5 min incubation with Stattic (data not shown)
  degranulation: totally abolished
RBL cells; IgE/DNP-BSA, 60 μM Stattic 20 min
  β-hexosaminidase release: completely abolished
RBL cells; stated concentrations of Stattic (FIG. 6)
  effect on IgE-Ag mediated β-hexosaminidase release, dependence on concentration: concentration dependent
[2]
  phosphorylation levels of STAT3 serine 727 in total cell lysate: significant reduction
